# Patent US8741932B2, “Imidazopyridine derivatives” (Piramal Enterprises Limited, priority 2009, dated 2014)
# Tested on: A549
# Test: Cytotoxicity assay (propidium iodide), A549
# Assay type: cell-based
# Conditions: A549 (C1a, lung); 48 hours
row,Compound,IC50 [µM]
1,"(E)-5-fluoro-N′-((6-(5-fluoropyridin-3-yl) imidazo[1,2-a]pyridin-3-yl)methylene)-N, 2-dimethylbenzenesulfonohydrazide [Example 132]",0.01 to 5

# Same assay, conditions: Homo sapiens; A549 (C1a, lung); 48 hours
row,Compound,IC50 [µM]
1,"CN(/N=C/c1cnc2ccc(-c3cccnc3)cn12)S(=O)(=O)c1cc(C(F)(F)F)ccc1Cl [Example 65, (E)-2-chloro-N-methyl-N′-((6-(pyridin-3-yl)imidazo[1,2-a]pyridin-3-yl)methylene)-5-(trifluoromethyl)benzenesulfonohydrazide]",0.01 to 5
2,"COc1ccc(F)cc1S(=O)(=O)N(C)/N=C/c1cnc2ccc(-c3cccnc3F)cn12 [Example 88, (E)-5-Fluoro-N′-((6-(2-fluoropyridin-3-yl)imidazo[1,2-a]pyridin-3-yl)methylene)-2-methoxy-N-methylbenzenesulfonohydrazide]",0.01 to 5

# Tested on: IL-6
# Test: Human monocyte assay, LPS-stimulated IL-6
# Assay type: cell-based
# Conditions: Monocyte; human monocytes, 1 μg/ml LPS, 5 hours
# Experimental: The assay was designed as in the reference, Physiol.
# Peripheral blood mononuclear cells (hPBMC) were harvested from human blood and suspended in RPMI 1640 culture medium containing 10% FCS, 100 U/mL penicillin and […] streptomycin (assay medium). Monocytes in the hPBMCs were counted using a Coulter Counter following which the cells were resuspended at 2×10^5 monocytes/mL. A cell suspension containing 2×10^4 monocytes was aliquoted per well of a 96-well plate. Subsequently, the hPBMCs were incubated for 4-5 hours at 37° C., 5% CO2 (During the incubation, the monocytes adhered to the bottom of 96-well plastic culture plate). Following the incubation, the non-adherent lymphocytes were washed with assay medium and the adherent monocytes re-fed with assay medium. After a 48-hour incubation period (37° C., 5% CO2), monocytes were pretreated with various concentrations of representative compounds of present invention (refer to table 6 and 7) (prepared in DMSO) or vehicle (0.5% DMSO) for 30 minutes and stimulated with 1 μg/ml LPS (Escherchia coli 0111:B4, Sigma Chemical Co., St. Louis, Mo.). The incubation was continued for 5 hours at 37° C., 5% CO2. Supernatants were harvested, assayed for IL-6 and TNF-α by ELISA as described by the manufacturer (BD Biosciences, USA). Dexamethasone (10 μM) was used as standard for this assay. […] Biological results for both IL-6 and TNFα are indicated in Table 6 and Table 7 respectively.
row,Compound,IC50 [µM]
1,"Cc1cc(-c2cccnc2)cn2c(/C=N/N(C)S(=O)(=O)c3cccc(C#N)c3)cnc12 [Example 106, (E)-3-cyano-N-methyl-N′-((8-methyl-6-(pyridin-3-yl)imidazo[1,2-a]pyridin-3-yl)methylene)benzenesulfonohydrazide]",≥ 5
2,"CN(/N=C/c1cnc2ccc(-c3cccnc3)cn12)S(=O)(=O)c1ccc(I)cc1 [Example 46, (E)-4-Iodo-N-methyl-N′-((6-(pyridin-3-yl)imidazo[1,2-a]pyridin-3-yl)methylene)benzenesulfonohydrazide]",≥ 5
3,"Cc1cc2ncc(C=NN(C)S(=O)(=O)c3ccccc3C#N)n2cc1-c1cccnc1 [Example 117, 2-Cyano-N-methyl-N′-((7-methyl-6-(pyridin-3-yl)imidazo[1,2-a]pyridin-3-yl)methylene) benzenesulfonohydrazide]",≥ 5
4,"Cc1ccc(-c2ccc3ncc(/C=N/N(C)S(=O)(=O)c4ccccc4OC(F)(F)F)n3c2)cn1 [Example 129, (E)-N-methyl-N′-((6-(6-methylpyridin-3-yl)imidazo[1,2-a]pyridin-3-yl)methylene)-2-(trifluoromethoxy)benzenesulfonohydrazide]",≥ 5
5,"Cc1cc(-c2cccnc2)cn2c(/C=N/N(C)S(=O)(=O)c3cccc(Cl)c3)cnc12 [Example 110, (E)-3-Chloro-N-methyl-N′-((8-methyl-6-(pyridin-3-yl)imidazo[1,2-a]pyridin-3-yl)methylene)benzenesulfonohydrazide]",≥ 5
6,"Cc1cccc(S(=O)(=O)N(C)/N=C/c2cnc3ccc(-c4cccnc4)c(C)n23)c1 [Example 127, (E)-N,3-dimethyl-N′-((5-methyl-6-(pyridin-3-yl)imidazo[1,2-a]pyridin-3-yl)methylene)benzenesulfonohydrazide]",≥ 5
7,"Cc1nc(S(=O)(=O)N(C)/N=C/c2cnc3ccc(-c4cccnc4)cn23)cn1C [Example 42, (E)-N, 1,2-trimethyl-N′-((6-(pyridin-3-yl)imidazo[1,2-a]pyridin-3-yl)methylene)-1H-imidazole-4-sulfonohydrazide]",≥ 5
8,"CN(/N=C/c1cnc2ccc(-c3cccnc3)cn12)S(=O)(=O)c1ccc(-c2ccccc2)cc1 [Example 72, (E)-N-methyl-N′-((6-(pyridin-3-yl)imidazo[1,2-a]pyridin-3-yl)methylene)biphenyl-4-sulfonohydrazide]",≥ 5
9,"CN(N=Cc1cnc2ccc(Br)cn12)C(=O)NCc1ccccc1 [Example 145, N-benzyl-2-((6-bromoimidazo[1,2-a]pyridin-3-yl)methylene)-1-methylhydrazinecarboxamide]",0.001 to 5
10,"Cc1ccc(F)cc1S(=O)(=O)N(C)/N=C/c1cnc2ccc(-c3cccnc3F)cn12 [Example 87, (E)-5-Fluoro-N′-((6-(2-fluoropyridin-3-yl)imidazo[1,2-a]pyridin-3-yl)methylene)-N,2-dimethylbenzenesulfonohydrazide]",0.001 to 5
11,"Cc1cc(-c2cccnc2)cn2c(/C=N/N(C)S(=O)(=O)c3cccc([N+](=O)[O-])c3)cnc12 [Example 109, (E)-N-methyl-N′-((8-methyl-6-(pyridin-3-yl)imidazo[1,2-a]pyridin-3-yl)methylene)-3-nitrobenzenesulfonohydrazide]",≥ 5

# Next, values leading:
row,IC50 [µM],Compound
1,0.001 to 5,"CN(/N=C/c1cnc2ccc(-c3cccnc3)cn12)S(=O)(=O)c1cc(C(F)(F)F)ccc1Cl [Example 65, (E)-2-chloro-N-methyl-N′-((6-(pyridin-3-yl)imidazo[1,2-a]pyridin-3-yl)methylene)-5-(trifluoromethyl)benzenesulfonohydrazide]"
2,0.001 to 5,"COc1ccc(F)cc1S(=O)(=O)N(C)/N=C/c1cnc2ccc(-c3cccnc3F)cn12 [Example 88, (E)-5-Fluoro-N′-((6-(2-fluoropyridin-3-yl)imidazo[1,2-a]pyridin-3-yl)methylene)-2-methoxy-N-methylbenzenesulfonohydrazide]"
3,0.001 to 5,"CCCCCCS(=O)(=O)N(C)/N=C/c1cnc2ccc(-c3cccnc3)cn12 [Example 61, (E)-N-methyl-N′-((6-(pyridin-3-yl)imidazo[1,2-a]pyridin-3-yl)methylene) hexane-1-sulfonohydrazide]"
4,0.001 to 5,"Cc1ccc(F)cc1S(=O)(=O)N(C)/N=C/c1cnc2ccc(-c3cnc(F)c(C)c3)cn12 [Example 134, (E)-5-Fluoro-N′-((6-(6-fluoro-5-methylpyridin-3-yl)imidazo[1,2-a]pyridin-3-yl)methylene)-N,2-dimethylbenzenesulfonohydrazide]"
5,0.001 to 5,"CN(/N=C/c1cnc2ccc(-c3cccnc3)cn12)S(=O)(=O)c1ccc(F)cc1Cl [Example 41, (E)-2-chloro-4-fluoro-N-methyl-N′-((6-(pyridin-3-yl)imidazo[1,2-a]pyridin-3-yl)methylene) benzenesulfonohydrazide]"
6,0.001 to 5,"CN(/N=C/c1cnc2ccc(-c3cccnc3)cn12)S(=O)(=O)c1ccc(Cl)c([N+](=O)[O-])c1 [Example 74, (E)-4-chloro-N-methyl-3-nitro-N′-((6-(pyridin-3-yl)imidazo[1,2-a]pyridin-3-yl)methylene) benzenesulfonohydrazide]"
7,0.001 to 5,"CN(/N=C/c1cnc2ccc(-c3cccnc3)cn12)S(=O)(=O)c1ccccc1Oc1ccccc1 [Example 60, (E)-N-methyl-2-phenoxy-N′-((6-(pyridin-3-yl)imidazo[1,2-a]pyridin-3-yl)methylene)benzenesulfonohydrazide]"
8,0.001 to 5,"CN(/N=C/c1cnc2ccc(-c3cccnc3)cn12)S(=O)(=O)c1ccccc1S(C)(=O)=O [Example 59, (E)-N-methyl-2-(methylsulfonyl)-N′-((6-(pyridin-3-yl)imidazo[1,2-a]pyridin-3-yl)methylene) benzenesulfonohydrazide]"
9,0.001 to 5,"CN(/N=C/c1cnc2ccc(-c3cccnc3)cn12)S(=O)(=O)c1ccc(F)c(F)c1F [Example 34, (E)-2,3,4-Trifluoro-N-methyl-N′-((6-(pyridin-3-yl)imidazo[1,2-a]pyridin-3-yl)methylene)benzenesulfonohydrazide]"
10,0.001 to 5,"CN(/N=C/c1cnc2ccc(-c3cccnc3)cn12)S(=O)(=O)c1cc(C(F)(F)F)ccc1N1CCOCC1 [Example 62, (E)-N-methyl-2-morpholino-N′-((6-(pyridin-3-yl)imidazo[1,2-a]pyridin-3-yl)methylene)-5-(trifluoromethyl)benzenesulfonohydrazide]"
11,0.001 to 5,"CN(/N=C/c1cnc2ccc(-c3cccnc3)cn12)C(=O)NCc1ccccc1 [Example 141, (E)-N-benzyl-1-methyl-2-((6-(pyridin-3-yl)imidazo[1,2-a]pyridin-3-yl)methylene)hydrazinecarboxamide]"
12,0.001 to 5,"CN(/N=C/c1cnc2ccc(-c3cccnc3)cn12)S(=O)(=O)c1ccc(Oc2ccccc2)cc1 [Example 70, (E)-N-methyl-4-phenoxy-N′-((6-(pyridin-3-yl)imidazo[1,2-a]pyridin-3-yl)methylene)benzenesulfonohydrazide]"
13,0.001 to 5,"COC(=O)c1ccc(S(=O)(=O)N(C)/N=C/c2cnc3ccc(-c4cccnc4)cn23)n1C [Example 67, (E)-Methyl 1-methyl-5-(1-methyl-2-((6-(pyridin-3-yl)imidazo[1,2-a]pyridin-3-yl)methylene) hydrazinylsulfonyl)-1H-pyrrole-2-carboxylate]"
14,0.001 to 5,"CN(/N=C/c1cnc2ccc(-c3cccnc3)cn12)S(=O)(=O)c1cc(F)c(Br)cc1F [Example 35, (E)-4-bromo-2,5-difluoro-N-methyl-N′-((6-(pyridin-3-yl)imidazo[1,2-a]pyridin-3-yl)methylene)benzenesulfonohydrazide]"
15,0.001 to 5,"CN(/N=C/c1cnc2ccc(-c3cccnc3)cn12)S(=O)(=O)c1ccccc1Br [Example 64, (E)-2-bromo-N-methyl-N′-((6-(pyridin-3-yl)imidazo[1,2-a]pyridin-3-yl)methylene) benzenesulfonohydrazide]"
16,0.001 to 5,"CN(/N=C/c1cnc2ccc(-c3cccnc3)cn12)S(=O)(=O)c1cccc(Cl)c1 [Example 39, (E)-3-chloro-N-methyl-N′-((6-(pyridin-3-yl)imidazo[1,2-a]pyridin-3-yl)methylene)benzenesulfonohydrazide]"

# Same assay, conditions: human monocytes, 1 μg/ml LPS, 5 hours
row,IC50 [µM],Compound
1,0.001 to 5,"CN(N=Cc1cnc2ccc(Br)cn12)C(=S)NCCN1CCOCC1 [Example 151, 2-((6-bromoimidazo[1,2-a]pyridin-3-yl)methylene)-1-methyl-N-(2-morpholinoethyl) hydrazinecarbothioamide]"
2,≥ 5,Cc1cc(-c2cccnc2)cn2c(/C=N/N(C)S(=O)(=O)c3c(F)cc(F)cc3Br)cnc12 [Example 112]

# Tested on: H460
# Test: Cytotoxicity assay (propidium iodide), H460
# Assay type: cell-based
# Conditions: H460 (C1b, lung); 48 hours
row,Compound,IC50 [µM]
1,"(E)-5-fluoro-N′-((6-(5-fluoropyridin-3-yl) imidazo[1,2-a]pyridin-3-yl)methylene)-N, 2-dimethylbenzenesulfonohydrazide [Example 132]",0.01 to 5

# Same assay, conditions: Homo sapiens, NCI-H460; H460 (C1b, lung); 48 hours
row,Compound,IC50 [µM]
1,"CN(/N=C/c1cnc2ccc(-c3cccnc3)cn12)S(=O)(=O)c1cc(C(F)(F)F)ccc1Cl [Example 65, (E)-2-chloro-N-methyl-N′-((6-(pyridin-3-yl)imidazo[1,2-a]pyridin-3-yl)methylene)-5-(trifluoromethyl)benzenesulfonohydrazide]",0.01 to 5
2,"COc1ccc(F)cc1S(=O)(=O)N(C)/N=C/c1cnc2ccc(-c3cccnc3F)cn12 [Example 88, (E)-5-Fluoro-N′-((6-(2-fluoropyridin-3-yl)imidazo[1,2-a]pyridin-3-yl)methylene)-2-methoxy-N-methylbenzenesulfonohydrazide]",0.01 to 5
